What all share (assay): biochemical
Common to all, as to set-up: Invitrogen SelectScreen kinase panel, percent inhibition at 1 uM, ATP at Km
What all share (settings): read-out: Invitrogen KSS %Inh at 1 µM

One experiment addresses STK22B (TSSK2) (Homo sapiens, UniProt Q96PF2). As for the experimental part: (§1) The METi and RAFi were screened against kinase panels (SelectScreen, Invitrogen; University of Dundee, Division of Signal Transduction Therapy, UK; Upstate Biotechnology/Millipore, Billerica, MA). In these selectivity assays the concentration of ATP was set to the Km value of ATP for each kinase tested to allow for a relative potency comparison between the various kinases. The compounds were tested at 1 µM final concentration. […] Supplementary file pone.0039653.s002.pdf: Figure S2 Kinase Selectivity Screen of RAFi. (A) Kinase selectivity screen (KSS) performed at University of Dundee (Division of Signal Transduction Therapy). Values in % inhibition of phosphorylation given 1 µM of RAFi compared to control. (B) KSS performed at Invitrogen (Selectscreen Service) compared to control. Values in % inhibition of phosphorylation given 1 µM of RAFi. (C) Cell based dose response kinase inhibition of indicated kinases by RAFi. (PDF) Click here for additional data file.

The target in another experiment is ABL1 T315I (Homo sapiens, UniProt P00519, T315I). How it is done:
as §1

For another experiment, the target named is MINK1 (Homo sapiens, UniProt Q8N4C8). As for the experimental part:
as §1

For the next experiment, the target named is EGFR (ErbB1) L858R (Homo sapiens, UniProt P00533, L858R). How it is done:
as §1

Another experiment has as its target PRKCQ (PKC theta) (Homo sapiens, UniProt Q04759). How it is done: as §1
A further experiment concerns the target CSF1R (FMS) (Homo sapiens, UniProt P07333). How it is done:
as §1

Another experiment deals with PDGFRB (PDGFR beta) (Homo sapiens, UniProt P09619). How it is done:
as §1

The target of the next experiment is PAK4 (Homo sapiens, UniProt O96013). How it is done:
as §1

Another experiment concerns the target PTK2B (FAK2) (Homo sapiens, UniProt Q14289). How it is done: as §1
The target of another experiment is PRKG1 (Homo sapiens, UniProt Q13976). As for the experimental part: as §1
The target in a further experiment is PIK3CG (p110 gamma) (Homo sapiens, UniProt P48736). How it is done: as §1
A further experiment has as its target PLK1 (Homo sapiens, UniProt P53350). How it is done: as §1
Another experiment concerns the target FGFR1 (Homo sapiens, UniProt P11362). As for the experimental part: as §1
The target of a further experiment is BTK (Homo sapiens, UniProt Q06187). How it is done:
as §1

For a further experiment, the target named is GSK3B (GSK3 beta) (Homo sapiens, UniProt P49841). How it is done: as §1
Another experiment has as its target DYRK1A (Homo sapiens, UniProt Q13627). How it is done:
as §1

The target in another experiment is IRAK4 (Homo sapiens, UniProt Q9NWZ3). How it is done:
as §1

For another experiment, the target named is PKN1 (PRK1) (Homo sapiens, UniProt Q16512). As for the experimental part:
as §1

A further experiment addresses PAK6 (Homo sapiens, UniProt Q9NQU5). As for the experimental part: as §1
The target in the next experiment is RPS6KA4 (MSK2) (Homo sapiens, UniProt O75676). As for the experimental part:
as §1

The next experiment deals with MAPK8 (JNK1) (Homo sapiens, UniProt P45983). As for the experimental part: as §1
The target of a further experiment is FYN (Homo sapiens, UniProt P06241). How it is done:
as §1

PDGFRB (PDGFR beta), sequence (P09619 whole entry): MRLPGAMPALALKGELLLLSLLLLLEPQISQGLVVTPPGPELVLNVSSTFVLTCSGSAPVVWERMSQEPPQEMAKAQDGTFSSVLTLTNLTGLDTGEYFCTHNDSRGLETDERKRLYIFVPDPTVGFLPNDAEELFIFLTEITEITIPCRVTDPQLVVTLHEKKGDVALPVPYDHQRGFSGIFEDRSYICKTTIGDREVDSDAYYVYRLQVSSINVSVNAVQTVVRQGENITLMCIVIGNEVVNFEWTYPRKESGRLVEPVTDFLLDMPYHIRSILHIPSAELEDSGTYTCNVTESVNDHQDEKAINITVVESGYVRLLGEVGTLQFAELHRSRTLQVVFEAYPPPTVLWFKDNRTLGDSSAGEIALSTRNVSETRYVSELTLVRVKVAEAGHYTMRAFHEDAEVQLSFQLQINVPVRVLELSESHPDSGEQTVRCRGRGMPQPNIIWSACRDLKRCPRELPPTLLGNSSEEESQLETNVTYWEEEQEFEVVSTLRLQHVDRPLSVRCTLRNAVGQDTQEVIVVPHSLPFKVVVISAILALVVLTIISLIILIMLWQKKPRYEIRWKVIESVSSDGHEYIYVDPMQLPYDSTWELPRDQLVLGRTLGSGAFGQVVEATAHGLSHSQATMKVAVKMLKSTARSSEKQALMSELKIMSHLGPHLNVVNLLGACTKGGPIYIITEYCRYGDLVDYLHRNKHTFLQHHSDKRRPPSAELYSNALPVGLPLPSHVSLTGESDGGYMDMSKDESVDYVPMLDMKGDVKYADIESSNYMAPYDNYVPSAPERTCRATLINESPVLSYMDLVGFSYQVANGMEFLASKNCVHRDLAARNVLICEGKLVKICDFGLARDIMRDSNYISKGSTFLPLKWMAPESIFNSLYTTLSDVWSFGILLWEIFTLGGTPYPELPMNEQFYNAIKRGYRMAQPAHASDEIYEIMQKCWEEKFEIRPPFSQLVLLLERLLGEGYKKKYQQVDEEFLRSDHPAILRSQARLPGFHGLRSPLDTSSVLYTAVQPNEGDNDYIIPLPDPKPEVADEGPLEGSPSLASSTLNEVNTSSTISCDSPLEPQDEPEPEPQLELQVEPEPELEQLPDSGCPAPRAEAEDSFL
PIK3CG (p110 gamma), sequence (P48736 whole entry): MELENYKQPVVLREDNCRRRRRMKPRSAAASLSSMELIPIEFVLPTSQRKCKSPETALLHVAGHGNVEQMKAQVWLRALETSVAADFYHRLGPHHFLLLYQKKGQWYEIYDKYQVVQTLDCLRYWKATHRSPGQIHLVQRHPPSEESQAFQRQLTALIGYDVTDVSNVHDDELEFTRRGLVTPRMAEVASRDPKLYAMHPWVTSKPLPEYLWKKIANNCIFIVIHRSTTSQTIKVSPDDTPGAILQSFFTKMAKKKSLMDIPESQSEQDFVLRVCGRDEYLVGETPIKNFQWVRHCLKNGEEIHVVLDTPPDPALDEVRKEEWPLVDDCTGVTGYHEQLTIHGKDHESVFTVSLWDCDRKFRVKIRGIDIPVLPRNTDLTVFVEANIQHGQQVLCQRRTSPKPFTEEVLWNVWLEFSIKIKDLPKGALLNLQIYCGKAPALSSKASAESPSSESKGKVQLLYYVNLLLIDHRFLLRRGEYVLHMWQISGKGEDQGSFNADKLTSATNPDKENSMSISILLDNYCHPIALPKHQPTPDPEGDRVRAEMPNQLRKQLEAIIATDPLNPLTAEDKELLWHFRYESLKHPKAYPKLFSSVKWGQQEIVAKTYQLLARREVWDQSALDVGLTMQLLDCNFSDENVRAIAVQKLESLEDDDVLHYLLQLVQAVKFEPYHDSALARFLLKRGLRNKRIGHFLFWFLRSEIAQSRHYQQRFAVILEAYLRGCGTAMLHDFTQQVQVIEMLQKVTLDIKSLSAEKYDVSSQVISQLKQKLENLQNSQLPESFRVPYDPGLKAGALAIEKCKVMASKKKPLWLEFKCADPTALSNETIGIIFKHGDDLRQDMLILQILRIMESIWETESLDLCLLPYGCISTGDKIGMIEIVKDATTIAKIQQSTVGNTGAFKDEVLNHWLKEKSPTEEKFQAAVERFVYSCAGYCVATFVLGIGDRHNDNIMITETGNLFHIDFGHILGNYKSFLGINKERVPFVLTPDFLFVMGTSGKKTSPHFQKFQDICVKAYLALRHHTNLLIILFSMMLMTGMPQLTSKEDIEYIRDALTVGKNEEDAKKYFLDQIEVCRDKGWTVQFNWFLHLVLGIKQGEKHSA
IRAK4, sequence (Q9NWZ3 whole entry): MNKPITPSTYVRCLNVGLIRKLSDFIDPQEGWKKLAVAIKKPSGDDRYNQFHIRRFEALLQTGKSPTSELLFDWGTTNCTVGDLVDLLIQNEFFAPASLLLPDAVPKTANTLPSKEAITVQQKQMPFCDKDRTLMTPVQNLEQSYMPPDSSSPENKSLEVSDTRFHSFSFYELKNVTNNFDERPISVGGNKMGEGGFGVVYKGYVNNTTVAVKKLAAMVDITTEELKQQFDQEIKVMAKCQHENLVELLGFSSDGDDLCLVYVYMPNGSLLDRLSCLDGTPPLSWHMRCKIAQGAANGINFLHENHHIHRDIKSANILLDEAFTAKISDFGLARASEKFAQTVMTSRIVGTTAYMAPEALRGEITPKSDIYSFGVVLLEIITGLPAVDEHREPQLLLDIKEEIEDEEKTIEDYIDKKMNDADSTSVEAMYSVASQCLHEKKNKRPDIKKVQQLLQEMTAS
FYN, sequence (P06241 whole entry): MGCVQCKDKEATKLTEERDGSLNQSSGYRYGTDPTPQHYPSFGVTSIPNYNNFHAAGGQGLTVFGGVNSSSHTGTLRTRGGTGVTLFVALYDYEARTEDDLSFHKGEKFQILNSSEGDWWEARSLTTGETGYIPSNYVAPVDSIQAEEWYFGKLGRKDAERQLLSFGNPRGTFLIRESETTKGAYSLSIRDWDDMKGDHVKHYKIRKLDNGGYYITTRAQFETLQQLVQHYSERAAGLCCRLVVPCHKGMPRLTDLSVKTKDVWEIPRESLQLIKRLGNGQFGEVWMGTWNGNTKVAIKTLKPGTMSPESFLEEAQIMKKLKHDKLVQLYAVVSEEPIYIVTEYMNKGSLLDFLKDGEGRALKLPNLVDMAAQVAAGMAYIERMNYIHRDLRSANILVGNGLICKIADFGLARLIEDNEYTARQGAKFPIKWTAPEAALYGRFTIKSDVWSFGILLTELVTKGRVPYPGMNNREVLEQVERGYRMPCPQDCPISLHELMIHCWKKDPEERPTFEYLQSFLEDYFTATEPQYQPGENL
PTK2B (FAK2), sequence (Q14289 whole entry): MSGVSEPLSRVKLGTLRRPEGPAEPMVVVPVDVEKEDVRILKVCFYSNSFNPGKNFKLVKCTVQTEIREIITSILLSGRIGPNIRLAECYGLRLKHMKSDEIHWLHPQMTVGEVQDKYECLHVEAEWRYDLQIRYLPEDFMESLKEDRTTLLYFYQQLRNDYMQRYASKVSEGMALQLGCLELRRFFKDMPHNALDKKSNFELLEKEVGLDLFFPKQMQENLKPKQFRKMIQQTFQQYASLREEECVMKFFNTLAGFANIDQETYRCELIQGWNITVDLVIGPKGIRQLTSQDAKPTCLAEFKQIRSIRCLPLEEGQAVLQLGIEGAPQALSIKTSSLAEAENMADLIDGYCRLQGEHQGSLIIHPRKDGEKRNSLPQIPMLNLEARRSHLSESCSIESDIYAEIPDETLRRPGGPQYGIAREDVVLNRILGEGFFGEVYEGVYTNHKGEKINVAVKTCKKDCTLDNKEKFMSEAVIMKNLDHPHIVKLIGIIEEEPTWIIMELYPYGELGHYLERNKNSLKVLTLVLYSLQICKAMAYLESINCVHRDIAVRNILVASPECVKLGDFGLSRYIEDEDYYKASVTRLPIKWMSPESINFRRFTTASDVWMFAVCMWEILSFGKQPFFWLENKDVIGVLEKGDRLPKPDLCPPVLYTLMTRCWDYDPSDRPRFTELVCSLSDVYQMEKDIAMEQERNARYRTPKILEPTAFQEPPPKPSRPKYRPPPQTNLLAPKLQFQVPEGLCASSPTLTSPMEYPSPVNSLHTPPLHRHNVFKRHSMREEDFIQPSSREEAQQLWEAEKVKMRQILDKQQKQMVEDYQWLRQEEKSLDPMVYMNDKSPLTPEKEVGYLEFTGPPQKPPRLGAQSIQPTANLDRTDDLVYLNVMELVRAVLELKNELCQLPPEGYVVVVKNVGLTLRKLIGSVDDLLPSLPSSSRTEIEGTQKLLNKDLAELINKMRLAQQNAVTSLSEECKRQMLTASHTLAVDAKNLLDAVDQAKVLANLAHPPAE
STK22B (TSSK2), sequence (Q96PF2 whole entry): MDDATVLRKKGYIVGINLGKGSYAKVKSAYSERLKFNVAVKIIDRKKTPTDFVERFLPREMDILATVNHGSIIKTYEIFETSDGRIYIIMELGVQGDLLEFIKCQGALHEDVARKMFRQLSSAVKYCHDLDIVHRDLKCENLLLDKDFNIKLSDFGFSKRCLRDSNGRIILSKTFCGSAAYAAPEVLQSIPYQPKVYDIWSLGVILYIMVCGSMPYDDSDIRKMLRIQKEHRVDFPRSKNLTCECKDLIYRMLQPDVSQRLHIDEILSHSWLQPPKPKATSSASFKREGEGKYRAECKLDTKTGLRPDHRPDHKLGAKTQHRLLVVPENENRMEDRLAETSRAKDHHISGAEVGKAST
MAPK8 (JNK1), sequence (P45983 whole entry): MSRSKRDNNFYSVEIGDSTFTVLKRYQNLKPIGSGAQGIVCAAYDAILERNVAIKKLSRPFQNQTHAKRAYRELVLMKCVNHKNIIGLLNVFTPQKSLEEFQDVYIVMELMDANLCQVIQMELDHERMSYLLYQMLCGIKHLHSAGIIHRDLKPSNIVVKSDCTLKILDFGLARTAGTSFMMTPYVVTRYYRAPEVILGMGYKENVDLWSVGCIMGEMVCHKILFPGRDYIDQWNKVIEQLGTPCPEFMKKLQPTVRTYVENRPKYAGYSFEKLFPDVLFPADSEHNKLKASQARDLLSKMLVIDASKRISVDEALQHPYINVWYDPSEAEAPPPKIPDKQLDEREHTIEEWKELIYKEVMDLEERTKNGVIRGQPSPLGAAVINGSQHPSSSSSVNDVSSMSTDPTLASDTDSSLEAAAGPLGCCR

In the case of `N#CCCNc1nccc(-c2cn(CC(F)F)nc2-c2cnc3[nH]ccc3c2)n1` [RAFi, PF-04880594], the inhibition at 1 µM is 2% on STK22B (TSSK2); -21% on ABL1 T315I; 8% on MINK1; 6% on EGFR (ErbB1) L858R; -2% at PRKCQ (PKC theta); 33% on CSF1R (FMS). The inhibition at 1 µM is 2% at PDGFRB (PDGFR beta); 1% at PAK4; 6% at PTK2B (FAK2); -3% at PRKG1; 12% on PIK3CG (p110 gamma); 27% on PLK1. Further, the inhibition at 1 µM on FGFR1 was 1%; at BTK, -7%; on GSK3B (GSK3 beta), 23%; on DYRK1A, -12%; at IRAK4 it was -16%; on PKN1 (PRK1), -10%. For the same molecule, the inhibition at 1 µM was 10% at PAK6, 5% on RPS6KA4 (MSK2), 31% at MAPK8 (JNK1) and -4% on FYN.

The record behind these values is PMC3382171 (PLoS ONE, 2012).
